We go through 20 molecules from PMC3056882 (Steroids, 2011).

Read-outs that look alike come from different tables or passages of the source.

Series [1] has as its target T1, AKR1D1 (Homo sapiens, UniProt P51857).
T1 sequence (P51857 1-326): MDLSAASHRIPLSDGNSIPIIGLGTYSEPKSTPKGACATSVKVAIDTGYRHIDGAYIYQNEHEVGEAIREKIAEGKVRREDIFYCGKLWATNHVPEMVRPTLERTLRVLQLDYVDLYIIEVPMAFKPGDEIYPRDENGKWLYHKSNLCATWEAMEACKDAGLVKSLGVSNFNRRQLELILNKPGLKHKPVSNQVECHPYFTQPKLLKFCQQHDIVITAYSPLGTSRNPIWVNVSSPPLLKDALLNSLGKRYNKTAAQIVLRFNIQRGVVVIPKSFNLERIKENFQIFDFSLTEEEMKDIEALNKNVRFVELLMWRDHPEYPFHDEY
It counts as biochemical. Particulars: for Km / kcat: fluorimetric, pH 6.0, 15 μM NADPH, 37 °C.

Series [2] concerns the target T1, AKR1D1. Description: Inhibition of [4-14C]-testosterone reduction, radiometric assay. It counts as biochemical. As to conditions: for ability to inhibit the AKR1D1 dependent reduction of testosterone: result in words; for mode of inhibition of AKR1D1: C, competitive inhibition, NC, non-competitive inhibition.
A further series deals with AKR1C1. As to conditions: read-out: Ki AKR1C1; competitive (C); ref Bauman et al., 2005 [28]; cited from earlier work.
The target of the next series is AKR1C3. As to conditions: read-out: Ki AKR1C3; competitive (C); ref Bauman et al., 2005 [28]; cited from earlier work.
For the next series, the target named is AKR1C2. Particulars: read-out: Ki AKR1C2; competitive (C); ref Bauman et al., 2005 [28]; cited from earlier work.
Series [3] addresses T1, AKR1D1. Particulars: cited from earlier work.
For series [4], the target named is T1, AKR1D1. The series can be described thus: Dissociation constant of AKR1D1-NADPH binary complex by fluorescence titration. It counts as binding.
The next series deals with aldose reductase AKR1B1. As to conditions: read-out: Kd of NADPH for aldose reductase AKR1B1; cited from earlier work.
Substrate in series [5]: C[C@]12CC[C@H]3[C@@H](CCC4=CC(=O)CC[C@@]43C)[C@@H]1CC[C@H]2O
It counts as biochemical, human. Particulars: other: fluorimetric, pH 6.0, 15 μM NADPH, 37 °C.

Substrate in series [6]: C[C@]12CCC(=O)C=C1CC[C@@H]1[C@@H]2[C@@H](O)C[C@@]2(C)[C@H]1CC[C@]2(O)C(=O)CO
It counts as biochemical, human. As to conditions: other: fluorimetric, pH 6.0, 15 μM NADPH, 37 °C.

Substrate in series [7]: C[C@]12CCC(=O)C=C1CC[C@@H]1[C@@H]2[C@@H](O)C[C@]2(C=O)[C@@H](C(=O)CO)CC[C@@H]12
It counts as biochemical, human. As to conditions: other: fluorimetric, pH 6.0, 15 μM NADPH, 37 °C.

Where [8] appears, read: read-out: Ki (substrate inhibition), dissociation constant for substrate from the E-NADP(H) complex, N.D. = not detected.
Where [9] appears, read: ref Di Costanzo et al., 2008 [13].
Setting [10] is: dissociation constant for substrate from the E-NADP(H) complex, N.D. = not detected.

One may read the Km as the concentration of substrate that gives half-maximal velocity. The term kcat denotes the number of substrate molecules converted per active site and unit of time at saturation. With `CC(C)CCC[C@@H](C)[C@H]1CC[C@H]2[C@@H]3[C@H](O)CC4=CC(=O)CC[C@]4(C)[C@H]3CC[C@]12C` [4-Cholesten-7α-ol-3-one], at AKR1D1 [1], the Km was 0.8 ± 0.2 µM and the kcat came to 0.0333 ± 0.0017 s⁻¹.

Take `C[C@]12CC[C@H]3[C@@H](CCC4=CC(=O)CC[C@@]43C)[C@@H]1CC[C@H]2O` [Epitestosterone]: the Ki on AKR1D1 [1] was found to be 10 ± 2.2 µM.

Consider `Cc1cccc(Nc2ccccc2C(=O)O)c1C` [Mefenamic acid], for which, on AKR1D1 [2], the Ki is above 100 µM and the “ability to inhibit the AKR1D1 dependent reduction of testosterone” value is “ineffective”. Besides, at AKR1C1, the Ki was 0.8 µM.

On to `CC(=O)[C@H]1CC[C@H]2[C@@H]3CCC4=CC(=O)CC[C@]4(C)[C@H]3CC[C@]12C` [progesterone], for which, at AKR1D1 [1], the Ki is below 2 µM, the Km was below 0.2 µM and the turnover number (kcat) is above 0.067 s⁻¹.

Consider `O=C(O)c1ccc(C(=O)c2ccccc2)cc1` [4-Benzoylbenzoic acid], for which the Ki on AKR1D1 [2] was above 100 µM; on AKR1C3, 1.9 µM; at AKR1C2, 13.3 µM; at AKR1C1 it was 12.5 µM. On AKR1D1 [2], the “ability to inhibit the AKR1D1 dependent reduction of testosterone” value was “ineffective”.

Take `C[C@]12CC[C@H]3[C@@H](CCC4=CC(=O)CC[C@@H]43)[C@@H]1CC[C@@H]2O` [4-Estren-17β-ol-3-one]: on AKR1D1 [1], the Michaelis-Menten constant (Km) was determined as 3 ± 0.5 µM and the kcat came to 0.045 ± 0.0033 s⁻¹. Besides, the Ki at AKR1D1 [1] (setting [8]) stood at 18.6 ± 3.4 µM.

On to `C[C@]12CC[C@H]3[C@@H](CCC4=CC(=O)CC[C@@]43C)[C@@H]1CC[C@@H]2O` [Testosterone], for which the Ki on AKR1D1 [3] (read-out: Ki (substrate inhibition), ref Di Costanzo et al., 2008 [13]) was 14.5 ± 5.8 µM. For the same molecule, at AKR1D1 [3] (setting [9]), the Km is 2.7 ± 1.2 µM and the kcat was 0.14 ± 0.0333 s⁻¹.

As to `C[C@]12CCC(=O)C=C1CC[C@@H]1[C@@H]2CC[C@]2(C)C(=O)CC[C@@H]12` [Δ^4-Androstene-3,17-dione], at AKR1D1 [1], the Km came out at 0.9 ± 0.2 µM and the kcat is 0.1 ± 0.013 s⁻¹. Besides, the Ki at AKR1D1 [1] (setting [8]) was determined as 4.3 ± 1.3 µM.

`C[C@]12CC[C@H]3[C@@H](CCC4=CC(=O)CC[C@@]43C)[C@@H]1CC[C@@H]2C(=O)CO` [11-deoxycorticosterone]: at AKR1D1 [1], the Ki is below 2 µM, the Km was below 0.2 µM and the kcat is above 0.067 s⁻¹.

Take `CC(C)CCC[C@@H](C)[C@H]1CC[C@H]2[C@@H]3CCC4=CC(=O)CC[C@]4(C)[C@H]3CC[C@]12C` [Cholestenone]: on AKR1D1 [1], the Km was 0.3 ± 0.1 µM and the kcat was 0.01 ± 0.00067 s⁻¹.

For the molecule `C[C@H](CCC(=O)O)[C@H]1CC[C@H]2[C@@H]3[C@@H](O)C[C@@H]4C[C@H](O)CC[C@]4(C)[C@H]3CC[C@]12C` [Ursodeoxycholic acid], the Ki is 9.8 µM at AKR1D1 [2], 1.3 µM on AKR1C3, 0.011 µM on AKR1C2 and 4.9 µM on AKR1C1. The “mode of inhibition of AKR1D1” value on AKR1D1 [2] is given as “non-competitive”.

For `C[C@H](CCC(=O)O)[C@H]1CC[C@H]2[C@@H]3[C@H](O)C[C@@H]4C[C@H](O)CC[C@]4(C)[C@H]3CC[C@]12C` [Chenodeoxycholic acid], the Ki is 3.2 µM on AKR1D1 [2], 10 µM on AKR1C3, 0.017 µM at AKR1C2 and 8.3 µM on AKR1C1. The “mode of inhibition of AKR1D1” value on AKR1D1 [2] is “non-competitive”.

For `C[C@]12CCC(=O)C=C1CC[C@@H]1[C@@H]2[C@@H](O)C[C@@]2(C)[C@H]1CC[C@]2(O)C(=O)CO` [Cortisol], the “Ki (substrate inhibition)” value on AKR1D1 [1] (setting [10]) is reported as “do not exhibit substrate inhibition”.

`C[C@]12CCC(=O)C=C1CC[C@@H]1[C@@H]2[C@@H](O)C[C@]2(C=O)[C@@H](C(=O)CO)CC[C@@H]12` [Aldosterone]: at AKR1D1 [1], the Ki came out at 66.5 ± 15.7 µM.

In the case of `C[C@]12CCC(=O)C=C1CC[C@@H]1[C@@H]2C(=O)C[C@@]2(C)[C@H]1CC[C@]2(O)C(=O)CO` [Cortisone], at AKR1D1 [1], the Km was found to be 15.1 ± 0.3 µM and the kcat amounted to 0.195 ± 0.0017 s⁻¹.

`C[C@]12CC[C@H]3[C@@H](CCC4=CC(=O)C=C[C@@]43C)[C@@H]1CC[C@@H]2O` [1,4-Androstadien-17β-ol-3-one]: on AKR1D1 [3] (ref Drury et al., 2009 [14]), the Km is 3.2 ± 0.2 µM and the kcat was 0.035 ± 0.0017 s⁻¹.

With `COc1ccc2c(c1)c(CC(=O)O)c(C)n2C(=O)c1ccc(Cl)cc1` [Indomethacin], at AKR1D1 [2], the Ki was above 100 µM and the “ability to inhibit the AKR1D1 dependent reduction of testosterone” value is “ineffective”.

As to `C[C@]12C[C@H](O)[C@H]3[C@@H](CCC4=CC(=O)CC[C@@]43C)[C@@H]1CC[C@@H]2C(=O)CO` [Corticosterone], the “Ki (substrate inhibition)” value at AKR1D1 [1] (setting [10]) was “do not exhibit substrate inhibition”. Besides, on AKR1D1 [1], the Km came out at 2.2 ± 0.5 µM and the kcat amounted to 0.0317 ± 0.0017 s⁻¹.

As usually defined, the Kd is a measure of binding affinity in units of concentration. Take NADPH: on AKR1D1 [4] (AKR1D1 vs AKR1B1 (human aldose reductase)), the “Kd fold higher than AKR1B1” value is given as 5 fold. The Kd was 0.043 ± 0.016 µM on AKR1D1 [4] (read-out: dissociation constant (Kd) of NADPH for wild-type AKR1D1, fluorescence titration, 10 mM potassium phosphate pH 6.0, 37 °C) and 0.009 µM at aldose reductase AKR1B1.

B1: AKR1D1 (Homo sapiens) (protein)
chain: T1 sequence (P51857 1-326)
In general, kcat/Km refers to the second-order rate constant that governs catalysis at low substrate concentration. For B1, the Km in [5] came to 2.9 ± 0.6 µM; in series [6], 13.1 ± 1.8 µM; in [7], 2.5 ± 0.4 µM. In addition, the kcat stood at 0.1 ± 0.0117 s⁻¹ in series [5], 0.045 ± 0.00167 s⁻¹ in series [6] and 0.15 ± 0.01 s⁻¹ in series [7]. The results for the kcat/Km in series [5], in series [6] and in series [7] were 34800 M⁻¹ s⁻¹, 3500 M⁻¹ s⁻¹ and 61300 M⁻¹ s⁻¹, respectively.
